Earlier results as cited in publication PMC7510478, “The effect of size, charge, and peptide ligand length on kidney targeting by small, organic nanoparticles” (Bioengineering & Translational Medicine, 2020).

Experiments:
[1] = test system: ADPKD patients
From the text: Chronic kidney disease (CKD) affects 600 million people globally and is characterized by gradual kidney function decline. ^1 A common form of CKD is autosomal dominant polycystic kidney disease (ADPKD), which affects over 12 million people worldwide and is characterized by renal cyst formation that can result in the need for dialysis or kidney transplant. ^2 , ^3 , ^4 , ^5 Currently, there is no cure for ADPKD and tolvaptan is the only FDA approved treatment for ADPKD. ^6 Despite enthusiasm, tolvaptan has been reported to cause several side effects including polyuria, thirst, nocturia, and dru ...

[2] = test system: megalin; parameters: method as in PMID 27617593, PMID 19202329, PMID 11994745, PMID 9574443
[3] = study of 961 ADPKD patients undergoing tolvaptan treatment

| Compound | Patients affected by polyuria ([1]; ADPKD patients on tolvaptan) [%] | Adverse event rate, nocturia [1, 3] [%] | Adverse event rate, thirst [1, 3] | Uptake in megalin‐deficient mice [2] |
| --- | --- | --- | --- | --- |
| Cc1ccccc1C(=O)Nc1ccc(C(=O)N2CCCC(O)c3cc(Cl)ccc32)c(C)c1 (stereo not shown) [tolvaptan] | 38 | ~29 | approximately 55% |  |
| [Lys–Lys–Glu–Glu–Glu]3–Lys [(KKEEE)3K] |  |  |  | significantly reduced uptake |
